Results reported in publication PMC10779222, “Copper(II) Complexes with 1-(Isoquinolin-3-yl)heteroalkyl-2-ones: Synthesis, Structure and Evaluation of Anticancer, Antimicrobial and Antioxidant Potential” (International Journal of Molecular Sciences, 2023).

How the values were obtained:
[1] = DPPH radical scavenging assay; settings: ±SD; 30 min, room temperature
Protocol: The DPPH radical scavenging assay of samples was performed with ascorbic acid as a positive control. Briefly, 100 μL of different concentrations of the complexes, dissolved in DMSO, was mixed with 100 μL of 0.06 mM DPPH methanolic solution and incubated at room temperature in the dark for 30 min. The change in absorbance at λ = 517 nm was analyzed with the use of a 96-well microplate reader (Epoch, BioTek System, Winooski, VT, USA). The control was composed of DPPH and DMSO. DPPH inhibition was calculated according to the following equation:DPPH Inhibition (%) = [(Acontrol − Asample)/Acontrol] × 100% The radical scavenging activity of the samples was shown as the IC50 value (the concentration of the analyzed samples that caused a decrease in the non-reduced form of the DPPH radical by 50%).

HepG2 (hepatoma) = assay: MTT cytotoxicity assay on HepG2 cells; assay type: cell-based, human
Protocol: Cytotoxic activity of the investigated compounds was evaluated against T98G (glioblastoma), HepG2 (hepatoma), LS-180 (colon cancer) and A375 (melanoma) cell lines. Human normal skin fibroblasts, CCD-1059Sk (CRL-2072), were used as reference (non-cancerous) cells. All of the cell lines were obtained from American Type Culture Collection (ATCC; Manassas, VA, USA). A375, T98G and CCD-1059Sk cells were cultured in Dulbecco’s Modified Eagle’s Medium (DMEM) (Sigma Aldrich, St. Louis, MO, USA) supplemented with 10% FBS, penicillin (100 U/mL) and streptomycin (100 μg/mL). LS-180 and HepG2 cells were cultured in Eagle’s Minimum Essential Medium supplemented with 10% FBS, penicillin (100 U/mL) and streptomycin (100 μg/mL). All of the cells were maintained at 37 °C in a humidified atmosphere of 5% CO2. The compounds were dissolved in DMSO in order to obtain stock solutions. At the day of the experiment, the suspension of cells (1 × 10^5 cells/mL) was distributed onto 96-well plates at a volume of 100 μL/well. After attachment, the cells were treated with the increased concentrations of the tested compounds in medium containing 2% FBS and incubated for 24 h. Then, the medium was removed from wells, and cells were rinsed with PBS. Afterwards, 15 μL of MTT working solution (5 mg/mL in PBS) was added to each well, and the plates were incubated for 3 h. Subsequently, 100 μL of 10% SDS solution was added to each well in order to dissolve the precipitated formazan crystals. After overnight incubation at 37 °C, the absorbance of the obtained solution was measured at λ = 570 nm using a microplate reader (Epoch, BioTek Instruments, Inc., Winooski, VT, USA). At least two independent experiments were performed in triplicate. […] IC50 values of the investigated derivatives and positive control (etoposide) were calculated using the IC50 online calculator [101].

[2] = ABTS radical scavenging assay; settings: ±SD; 10 min, 30 °C
Protocol: The ABTS radical scavenging assay of samples (ligands or complexes) was performed with ascorbic acid as a positive control. Briefly, 30 μL of different concentrations of the samples, dissolved in DMSO, was mixed with 170 μL of ABTS solution (2 mM ABTS diammonium salt, 3.5 mM potassium persulfate) and completed with water to a final volume of 300 μL. ABTS solution with DMSO was used as a control. […] ABTS inhibition was calculated according to the following equation:ABTS Inhibition (%) = [(Acontrol − Asample)/Acontrol] × 100% The radical scavenging activity of the samples was shown as the IC50 value (the concentration of the analyzed samples that caused a decrease in the non-reduced form of the ABTS radical by 50%).

O=C1NCCN1c1cc2ccccc2cn1.O=C1NCCN1c1cc2ccccc2cn1.[Cl][Cu][Cl] [C2, Dichloro{bis[1-(Isoquinolin-3-yl)imidazolidin-2-one]}copper(II)]
IC50 DPPH [1]: 401.52 ± 2.48 µg/mL | selectivity index (SI), HepG2 (HepG2 (hepatoma); HepG2 compared with CCD-1059-Sk): 4.33 | highest concentration that did not affect the viability of HepG2 cells (HepG2 (hepatoma); MTT assay): 0.25 µg/mL | IC50 ± SD, HepG2 (HepG2 (hepatoma); MTT, 24 h incubation): 5.04 ± 0.42 µg/mL | IC50 ABTS [2]: 107.14 ± 1.42 µg/mL
